Reference: US20130129675A1, “INTERFERON THERAPIES IN COMBINATION WITH BLOCKADE OF STAT3 ACTIVATION” (BOARD OF REGENTS, THE UNIVERSITY OF TEXAS SYSTEM, priority 2009, published 2013)

How the values were obtained:
[1] = system: intracerebral B16 melanoma; experiment: Survival of mice with established intracerebral B16 melanoma; type: in vivo, C57BL/6J mice; details: for median overall survival: WP1193 30 mg/kg oral gavage (sub-therapeutic) from day 3, IFN-α plasmid i.v. day 5, control 17 days; for increase in median survival: versus control (17 days)
From the text: For the in vivo experiments, we used 4- to 6-week-old female C57BL/6J mice maintained in the M. D. Anderson Cancer Center Isolation Facility in accordance with Laboratory Animal Resources Commission standards and conducted according to an Institutional Animal Care and Use Committee-approved protocol, 08-06-11831. A mouse was euthanized when it became unable to reach food or water. To induce intracerebral tumors in C57BL/6J mice, B16 cells were collected in logarithmic growth phase, washed twice with PBS, mixed with an equal volume of 10% methyl cellulose and RPMI 1640 medium and loaded into a 250-μl syringe (Hamilton, Reno, Nev.) with an attached 25-gauge needle. The needle was positioned 2 mm to the right of bregma and 4 mm below the surface of the skull at the coronal suture using a stereotactic frame (Kopf Instruments, Tujunga, Calif.). The intracerebral tumorigenic dose for the B16 cells was 5×10^2 in a total volume of 5 μl.
pORF.IFN-α (IFN-α) plasmid was obtained from Invivogen (29). Hydrodynamic gene transfer (HGT) consisted of a single intravenous (i.v.) injection of 3 μg endotoxin-free pORF plasmid encoding murine IFN-α or pORF control plasmid DNA (InvivoGen, San Diego, Calif.) in 2 ml of saline as previously described. Liu F, Song Y, Liu D, Hydrodynamics-Based Transfection In Animals By Systemic Administration Of Plasmid DNA, Gene Therapy 1999; 6:1258-66. […] Sikora A G, Jaffarzad N, Hailemichael Y, Gelbard A, Stonier S W, Schluns K S, Frasca L, Lou Y, Liu C, Andersson H A, Hwu P, Overwijk W W, IFN-A Enhances Peptide Vaccine-Induced CD8+ T Cell Numbers, Effector Function, And Antitumor Activity, J Immunol 2009, 182:7398-407. The STAT3 inhibitor, WP1193, was synthesized and supplied by Dr. Priebe (M. D. Anderson). WP1193, a third-generation analogue inhibitor of the p-STAT3 pathway, was dissolved in a mixture of 20 parts dimethylsulfoxide (DMSO) to 80 parts polyethylene glycol (PEG) 300 (Sigma-Aldrich, St Louis, Mo.) at titered concentrations and delivered in a final volume of 100 μL. Prior to use, WP1193 was stored as a lyophilized powder at 4° C.
Treatment for the established intracerebral tumors was with WP1193 (starting on day 3) and/or IFN-α (starting on day 5) after B16 tumor cell challenge. Mice were injected intravenously (i.v.) with 2 ml (3 μg) of IFN-α plasmid in saline once. Mice were treated with a sub-therapeutic dose of 30 mg/kg of WP1193 by oral gavage (o.g.) in a vehicle of DMSO/PEG300 (20 parts/80 parts) on […], on a […]. schedule (5 days on, 2 days off). When mice were treated in the therapeutic range of 40 mg/kg, >80% of animals survived long-term (more than 70 days) and synergy with IFN-α could not be assessed. Ten mice per experimental group were used, including treatment with the DMSO/PEG300 vehicle alone in the control group.
Kaplan-Meier product-limit survival probability estimates of overall survival were calculated and log-rank tests were performed to compare overall survival between treatment groups and the control arm. Kaplan E L, Meier P., Nonparametric Estimation From Incomplete Observations, J Am Stat Assoc 1958; 53:457-81; Mantel N., Evaluation Of Survival Data And Two New Rank Order Statistics Arising In Its Consideration, Cancer Chemother Rep 1966; 50:163-70 Ex-vivo or in vitro data are presented as means±standard errors (SEs) of three repeated experiments. Student's t test was performed. A P value below 0.05 was considered statistically significant. […]

[2] = system: B16 cells; experiment: MHC I, MHC II and NK cell ligands on B16 melanoma cells (flow cytometry); type: cell-based, murine; details: WP1193 2 μM, IFN-α 20 ng/ml; for MHC I expression on B16: 24 hours (FIG. 6A); for surface H60, Rae-1 and CD155 (NK ligands) on B16: 24 hours (FIG. 6B)
Description: To ascertain the MHC I, MHC II, and NK ligands expressed on melanoma cells, B16 cells were seeded at a density of 2×10^6 cells/well in 24-well culture plates and cultured with the RPMI 1640 medium in the absence or presence of WP1193 (2 μM) and/or INF-α (20 ng/ml) for 24 hours. Afterwards, the cells were harvested and washed twice, and 10^6 cells in duplicate were Fc blocked with purified rat anti-mouse CD16/CD32 (BD Biosciences) for 15 minutes at room temperature. The B16 cells were washed and then stained for approximately 30 minutes at 4° C. with FITC-conjugated rat anti-mouse MHC I mAb (Abeam, Cambridge, Mass.), PE-conjugated rat anti-mouse MHC Class II mAb (Abeam), FITC-conjugated rat anti-mouse Rae-1 mAb (R&D Systems), APC-conjugated rat anti-mouse H60 mAb (R&D Systems) or PE-conjugated rat anti-mouse CD155 mAb (Biolegend). Negative control cells were stained with the corresponding isotypes. Following incubation, the cells were washed twice with FACS buffer and then analyzed with a BD FACSCalibur with gates set for viable cells.
Because we observed NK and CD8+ T cell-mediated anti-tumor cytotoxicity were enhanced with combinational therapy, to ascertain if either IFN-α, WP1193 or both were augmenting the expression of MHC or NK activating receptors or their ligands, splenocytes and B16 cells were treated with RPMI 1640 medium (control), WP1193 (2 μM), IFN-α (20 ng/ml), or IFN-α (20 ng/ml)+WP1193 (2 μM) for 24 hours. The NK-activating ligands (Rae-1, H60 and CD155) and MHC (I and II) on B16 cells and the NK-activating receptors (NKG2D, KLRD1, NKp46 and DNAM-1) on NK1.1+ NK cells were analyzed by flow cytometric analysis.

Compound | median overall survival [1] | animals surviving long-term (more than 70 days) ([1]; therapeutic range of 40 mg/kg) | increase in median survival [1] | MHC I expression on B16 [2] | surface H60, Rae-1 and CD155 (NK ligands) on B16 [2]
N#C/C(=C\c1cccc(Br)n1)C(=O)N[C@H](c1ccccc1)C1CC1 [WP1193, (S,E)-3-(6-bromopyridin-2-yl)-2-cyano-N-(cyclopropyl(phenyl)methyl)acrylamide] | 18.5 days | > 80% | 9% | not further enhanced | do not alter the receptor density of the NK ligands
IFN-α | 27.5 days |  | 62% | enhanced | do not alter the receptor density of the NK ligands
